In patent US12459958B2, “Tricyclic compounds as HPK1 inhibitor and the use thereof” (BEIGENE, LTD., priority 2019, dated 2025) one finds IC50 data, which are given here for 5 compounds.

In the test the target is T1, HPK1 kinase (aa1-346, Life Technologies) (Homo sapiens, UniProt Q92918).
T1 construct: HPK1 kinase (aa1-346, Life Technologies); purchased Life Technologies
T1 sequence (Q92918 1-346): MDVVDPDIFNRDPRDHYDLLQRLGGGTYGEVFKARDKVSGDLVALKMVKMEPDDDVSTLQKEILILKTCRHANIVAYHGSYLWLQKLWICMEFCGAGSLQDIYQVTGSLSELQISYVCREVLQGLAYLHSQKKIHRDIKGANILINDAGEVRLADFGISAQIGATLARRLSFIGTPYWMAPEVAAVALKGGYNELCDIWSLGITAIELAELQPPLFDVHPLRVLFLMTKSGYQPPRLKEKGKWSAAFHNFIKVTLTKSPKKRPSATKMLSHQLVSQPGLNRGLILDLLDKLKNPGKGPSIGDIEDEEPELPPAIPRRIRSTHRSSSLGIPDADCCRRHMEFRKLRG
The experiment in a line: HPK Kinase Activity Assay at 1 mM ATP (TR-FRET). The class given is biochemical. The conditions noted are these: HPK1 kinase 40 nM, 0.5 μM STK1 substrate, read-out: Enzymatic activity IC50. The procedure:
HPK Kinase Activity Assay at 1 mM ATP
Compounds disclosed herein were tested for inhibition of HPK1 kinase (aa1-346, Life Technologies) activity in assays based on the time-resolved fluorescence-resonance energy transfer (TR-FRET) methodology. The assays were carried out in 384-well low volume black plates in a reaction mixture containing HPK1 kinase (40 nM), 1 mM ATP, 0.5 μM STK1 substrate and 0-10 μM compound in buffer containing 50 mM HEPES, 0.01% BSA, 0.1 mM Orthovanadate, 10 mM MgCl2, 1 mM DTT, pH=7.0, 0.005% Tween-20. The kinase was incubated with the compounds disclosed herein or DMSO for 60 minutes at room temperature and the reaction was initiated by the addition of ATP and STK1 substrate. After reaction at room temperature for 120 minutes, an equal volume of stop/detection solution was added according to the manufacture's instruction (CisBio). The stop/detection solution contained STK Antibody-Cryptate and XL665-conjugated streptavidin in Detection Buffer. The TR-FRET signals (ratio of fluorescence emission at 665 nm over emission at 620 nm with excitation at 337 nm wavelength) were recorded on a PHERAstar FS plate reader (BMG Labtech). Phosphorylation of STK1 substrate led to the binding of STK Antibody-Cryptate to the biotinylated STK1 substrate, which places fluorescent donor (Eu^3+ crypate) in close proximity to the accepter (Streptavidin-XL665), thus resulting in a high degree of fluorescence resonance energy transfer. The inhibition of HPK1 in presence of increasing concentrations of compounds was calculated based on the ratio of fluorescence at 665 nm to that at 620 nm. The IC50 for each compound was derived from fitting the data to the four-parameter logistic equation by Graphpad Prism software.
The term IC50 denotes the concentration that inhibits the measured activity by half. With `Cc1cc(-c2c[nH]c3ncc(-c4cc(C)c5c(c4)CC[C@H]4CN(C)CCN54)nc23)ccc1C(=O)N(C)C[C@@H]1CCOC1` [Example 11B, 4-(2-((S)-3,10-dimethyl-2,3,4,4a,5,6-hexahydro-1H-pyrazino[1,2-a]quinolin-8-yl)-5H-pyrrolo[2,3-b]pyrazin-7-yl)-N,2-dimethyl-N—(((S)-tetrahydrofuran-3-yl)methyl)benzamide], the IC50 is 53 nM.
Next, `Cc1cc(-c2cnc3[nH]cc(-c4ccc(C(=O)N(C)CC(C)(C)O)cc4)c3n2)cc2c1N1CCN(C)C[C@H]1CC2` [Example 12A, (R)-4-(2-(3,10-dimethyl-2,3,4,4a,5,6-hexahydro-1H-pyrazino[1,2-a]quinolin-8-yl)-5H-pyrrolo[2,3-b]pyrazin-7-yl)-N-(2-hydroxy-2-methylpropyl)-N-methylbenzamide]: 52 nM; `Cc1cc(-c2cnc3[nH]cc(-c4ccc(C(=O)N(C)CC(C)(C)O)cc4)c3n2)cc2c1N1CCN(C)C[C@@H]1CC2` [Example 12B, (S)-4-(2-(3,10-dimethyl-2,3,4,4a,5,6-hexahydro-1H-pyrazino[1,2-a]quinolin-8-yl)-5H-pyrrolo[2,3-b]pyrazin-7-yl)-N-(2-hydroxy-2-methylpropyl)-N-methylbenzamide]: 52 nM.
For `Cc1cc(-c2c[nH]c3ncc(-c4cc(C)c5c(c4)CC[C@@H]4CN(C)CCN54)nc23)ccc1C(=O)N(C)CC(C)(C)O` [Example 13A, (R)-4-(2-(3,10-dimethyl-2,3,4,4a,5,6-hexahydro-1H-pyrazino[1,2-a]quinolin-8-yl)-5H-pyrrolo[2,3-b]pyrazin-7-yl)-N-(2-hydroxy-2-methylpropyl)-N,2-dimethylbenzamide] the value was 101 nM.
For `Cc1cc(-c2c[nH]c3ncc(-c4cc(C)c5c(c4)CC[C@H]4CN(C)CCN54)nc23)ccc1C(=O)N(C)CC(C)(C)O` [Example 13B, (S)-4-(2-(3,10-dimethyl-2,3,4,4a,5,6-hexahydro-1H-pyrazino[1,2-a]quinolin-8-yl)-5H-pyrrolo[2,3-b]pyrazin-7-yl)-N-(2-hydroxy-2-methylpropyl)-N,2-dimethylbenzamide] the value was 96 nM.
